Data published in patent US20130254944A1, “Herbicide Tolerant Soybeans and Methods of Use” (PIONEER HI BRED INTERNATIONAL INC, priority 2012, published 2013).

What was measured:
Assay type in all cases: in vivo
[1] = tested on: soybean having both the Als1 and Als2 mutations; experiment: Greenhouse postemergence test of ALS-inhibiting herbicides and isobole analysis, soybean with Als1 and Als2 mutations; details: for Avg response (% phytotoxicity), Trait Als1 + Als2: Table 2
Method: (§1) Soybean lines having wild type als1 & 2 genes, the Als1 mutation, the Als2 mutation, or both the Als1 and Als2 mutations were evaluated for their response to various herbicides. Two seeds from each line were planted into 4-inch pots containing Redi-Earth potting mix (Sun Gro Horticulture Canada Ltd. 52130 RR65, Seba Beach, Alberta TOE 2B0), with two replications planted for each treatment. Pots were placed in flats at 15 pots/flat, and the resulting plants were grown in a greenhouse environment supplemented with lighting (16 hr photoperiod) for the duration of the test. Selected herbicides representing the mode of action that inhibits the acetolactate synthase enzyme, also known as the acetohydroxyacid synthase enzyme, were applied postemergence to soybean when soybean plants were at the V2 growth stage, which is the stage at which the first two trifoliolate leaves were expanded.
(§2) Eleven active ingredients representing the five chemical families with herbicidal activity on the acetolactate synthase enzyme were tested. These herbicides can cause a phytotoxic response in wild type soybean plants. The five chemical families tested were sulfonylaminocarbonyltriazolinone (also known as triazolinone), imidazolinone, sulfonylurea, pyrimidinylthiobenzoate, and triazolopyrimidine. Application rates ranged from 0.5 times to eight times the currently labeled application rate for each active ingredient with spray application volume at 30 gallons/acre. The application rates tested were 0.5×, 1×, 2×, 4× and 8× the label rate for each herbicide. Herbicidal active ingredients were applied as formulated materials dispersed in water containing 0.25% nonionic surfactant (Trend® 90).
(§3) The test was evaluated by visually scoring plant phenotype 14 days after the herbicides were applied. Controls consisted of soybean plants of the same variety that received no herbicide treatments for each of all the varieties tested. Soybean response was recorded on a zero to 100 visual scale in which zero is no phytotoxic response and 100 is plant death fourteen days after the herbicides were applied. Soybean response (percent phytotoxicity) to postemergence applications of herbicides inhibiting the acetolactate synthase enzyme test results are shown in Table 1.
(§4) Results in Table 1 were evaluated using the isobole method for analyzing interactions. […] Here the biologically active agents that are being assessed for interaction (synergy) are gene mutations in soybean. The effectiveness of the genes in providing improved tolerance to ALS-inhibiting herbicides was assessed by applying increasing doses of herbicides to each soybean line with its mutation(s).
(§5) An isobole reduces a dose response surface in three dimensional space to a two dimensional plot by fixing a defined response level (e.g., 50% response). The isobole plot is a graph in the Cartesian plane with a straight line connecting the isoeffective rates of the individual components of the combination. This straight line represents expected responses for zero interactive combinations. The isoeffective rate used to create the isobole is often the EC50, the rate estimated to elicit 50% response, but other ECx values can be used. Since the isobole method is based on the potency of the components of the combination, an experimental design testing a range of rates expected to elicit the full range of responses (e.g., 0 to maximum response) is best. (Ferry et al. (2005) 2005 Conference on Applied Statistics in Agriculture Proceedings pp 33-50, Manhattan, Kans., Kansas State Univ.; Green and Streibig (1993) Herbicide Mixtures, pp 117-134 in Herbicide Bioassays, Streibig and Hudsk Eds, CRC, Boca Raton, Fla.).
(§6) Loglogistic dose response curves were fit to percent phytotoxicity response data using log 10 of dose (McCullagh and Nelder (1989) Generalized Linear Models, Chapman & Hall, London). Curves were fit using the logit link with normal errors. […]

[2] = tested on: soybean having the Als2 mutation; experiment: Greenhouse postemergence test of ALS-inhibiting herbicides, soybean with Als2 mutation; details: for Avg response (% phytotoxicity), Trait Als2: Table 2
Method: as §1, §2, §3, §4, §5, §6

[3] = tested on: soybean having the Als1 mutation; experiment: Greenhouse postemergence test of ALS-inhibiting herbicides, soybean with Als1 mutation; details: for Avg response (% phytotoxicity), Trait Als1: Table 2
Method: as §1, §2, §3, §4, §5, §6

[4] = tested on: wild type soybean; experiment: Greenhouse postemergence test of ALS-inhibiting herbicides, wild type soybean
Method: as §1, §2, §3

[5] = 17.5 g ai/ha postemergence at V2, scored 14 days after application
[6] = 35 g ai/ha postemergence at V2, scored 14 days after application
[7] = 70 g ai/ha postemergence at V2, scored 14 days after application
[8] = 140 g ai/ha postemergence at V2, scored 14 days after application
[9] = 280 g ai/ha postemergence at V2, scored 14 days after application
[10] = rate of herbicide estimated to cause 10% phytotoxic response, loglogistic fit
[11] = 560 g ai/ha postemergence at V2, scored 14 days after application
[12] = 8.75 g ai/ha postemergence at V2, scored 14 days after application
[13] = rates 0.5x to 8x the label rate

## COc1nn(C(=O)NS(=O)(=O)c2ccccc2OC(F)(F)F)c(=O)n1C [Flucarbazone]
[1]; [5]
  Soybean response (percent phytotoxicity), Als1 + Als2: 0%
[1]; 17.5 g ai/ha
  Avg response (% phytotoxicity), Trait Als1 + Als2: 0%
[1]; [6]
  Soybean response (percent phytotoxicity), Als1 + Als2: 0%
[1]; 35 g ai/ha
  Avg response (% phytotoxicity), Trait Als1 + Als2: 0%
[1]; [7]
  Soybean response (percent phytotoxicity), Als1 + Als2: 0%
[1]; 70 g ai/ha
  Avg response (% phytotoxicity), Trait Als1 + Als2: 0%
[1]; [8]
  Soybean response (percent phytotoxicity), Als1 + Als2: 0%
[1]; 140 g ai/ha
  Avg response (% phytotoxicity), Trait Als1 + Als2: 0%
[1]; [9]
  Soybean response (percent phytotoxicity), Als1 + Als2: 0%
[1]; 280 g ai/ha
  Avg response (% phytotoxicity), Trait Als1 + Als2: 0%
[1]; [10]
  EC10, Als1 + Als2: >280 g ai/ha
[2]; [5]
  Soybean response (percent phytotoxicity), Als2: 5%
[2]; 17.5 g ai/ha
  Avg response (% phytotoxicity), Trait Als2: 5%
[2]; [6]
  Soybean response (percent phytotoxicity), Als2: 15%
[2]; 35 g ai/ha
  Avg response (% phytotoxicity), Trait Als2: 30%
[2]; [7]
  Soybean response (percent phytotoxicity), Als2: 20%
[2]; 70 g ai/ha
  Avg response (% phytotoxicity), Trait Als2: 50%
[2]; [8]
  Soybean response (percent phytotoxicity), Als2: 25%
[2]; 140 g ai/ha
  Avg response (% phytotoxicity), Trait Als2: 55%
[2]; [9]
  Soybean response (percent phytotoxicity), Als2: 30%
[2]; 280 g ai/ha
  Avg response (% phytotoxicity), Trait Als2: 60%
[2]; [10]
  EC10, Als2: 8.14 g ai/ha
[3]; [5]
  Soybean response (percent phytotoxicity), Als1: 0%
[3]; 17.5 g ai/ha
  Avg response (% phytotoxicity), Trait Als1: 0%
[3]; [6]
  Soybean response (percent phytotoxicity), Als1: 0%
[3]; 35 g ai/ha
  Avg response (% phytotoxicity), Trait Als1: 0%
[3]; [7]
  Soybean response (percent phytotoxicity), Als1: 5%
[3]; 70 g ai/ha
  Avg response (% phytotoxicity), Trait Als1: 5%
[3]; [8]
  Soybean response (percent phytotoxicity), Als1: 10%
[3]; 140 g ai/ha
  Avg response (% phytotoxicity), Trait Als1: 10%
[3]; [9]
  Soybean response (percent phytotoxicity), Als1: 10%
[3]; 280 g ai/ha
  Avg response (% phytotoxicity), Trait Als1: 10%
[3]; [10]
  EC10, Als1: 230.45 g ai/ha
[4]; [5]
  Soybean response (percent phytotoxicity), Wild type: 60%
[4]; [6]
  Soybean response (percent phytotoxicity), Wild type: 80%
[4]; [7]
  Soybean response (percent phytotoxicity), Wild type: 90%
[4]; [8]
  Soybean response (percent phytotoxicity), Wild type: 98%
[4]; [9]
  Soybean response (percent phytotoxicity), Wild type: 98%

## COc1cc(OC)nc(Sc2cccc(Cl)c2C(=O)O)n1 [Pyrithiobac sodium]
[1]; [6]
  Soybean response (percent phytotoxicity), Als1 + Als2: 0%
[1]; 35 g ai/ha
  Avg response (% phytotoxicity), Trait Als1 + Als2: 0%
[1]; [7]
  Soybean response (percent phytotoxicity), Als1 + Als2: 5%
[1]; 70 g ai/ha
  Avg response (% phytotoxicity), Trait Als1 + Als2: 5%
[1]; [8]
  Soybean response (percent phytotoxicity), Als1 + Als2: 25%
[1]; 140 g ai/ha
  Avg response (% phytotoxicity), Trait Als1 + Als2: 25%
[1]; [9]
  Soybean response (percent phytotoxicity), Als1 + Als2: 45%
[1]; 280 g ai/ha
  Avg response (% phytotoxicity), Trait Als1 + Als2: 45%
[1]; [11]
  Soybean response (percent phytotoxicity), Als1 + Als2: 50%
[1]; 560 g ai/ha
  Avg response (% phytotoxicity), Trait Als1 + Als2: 50%
[2]; [6]
  Soybean response (percent phytotoxicity), Als2: 20%
[2]; 35 g ai/ha
  Avg response (% phytotoxicity), Trait Als2: 40%
[2]; [7]
  Soybean response (percent phytotoxicity), Als2: 30%
[2]; 70 g ai/ha
  Avg response (% phytotoxicity), Trait Als2: 60%
[2]; [8]
  Soybean response (percent phytotoxicity), Als2: 40%
[2]; 140 g ai/ha
  Avg response (% phytotoxicity), Trait Als2: 80%
[2]; [9]
  Soybean response (percent phytotoxicity), Als2: 45%
[2]; 280 g ai/ha
  Avg response (% phytotoxicity), Trait Als2: 92.5%
[2]; [11]
  Soybean response (percent phytotoxicity), Als2: 49%
[2]; 560 g ai/ha
  Avg response (% phytotoxicity), Trait Als2: 98%
[3]; [6]
  Soybean response (percent phytotoxicity), Als1: 20%
[3]; 35 g ai/ha
  Avg response (% phytotoxicity), Trait Als1: 20%
[3]; [7]
  Soybean response (percent phytotoxicity), Als1: 50%
[3]; 70 g ai/ha
  Avg response (% phytotoxicity), Trait Als1: 50%
[3]; [8]
  Soybean response (percent phytotoxicity), Als1: 70%
[3]; 140 g ai/ha
  Avg response (% phytotoxicity), Trait Als1: 70%
[3]; [9]
  Soybean response (percent phytotoxicity), Als1: 98%
[3]; 280 g ai/ha
  Avg response (% phytotoxicity), Trait Als1: 98%
[3]; [11]
  Soybean response (percent phytotoxicity), Als1: 97%
[3]; 560 g ai/ha
  Avg response (% phytotoxicity), Trait Als1: 96.5%
[4]; [6]
  Soybean response (percent phytotoxicity), Wild type: 70%
[4]; [7]
  Soybean response (percent phytotoxicity), Wild type: 95%
[4]; [8]
  Soybean response (percent phytotoxicity), Wild type: 98%
[4]; [9]
  Soybean response (percent phytotoxicity), Wild type: 98%
[4]; [11]
  Soybean response (percent phytotoxicity), Wild type: 98%

## COc1cc(Cl)nc(NC(=O)NS(=O)(=O)c2ccccc2C(=O)O)n1 [Chlorimuron]
[1]; [12]
  Soybean response (percent phytotoxicity), Als1 + Als2: 0%
[1]; [5]
  Soybean response (percent phytotoxicity), Als1 + Als2: 0%
[1]; [6]
  Soybean response (percent phytotoxicity), Als1 + Als2: 0%
[1]; [7]
  Soybean response (percent phytotoxicity), Als1 + Als2: 0%
[1]; [8]
  Soybean response (percent phytotoxicity), Als1 + Als2: 0%
[1]; [13]
  phytotoxic response (in words), Als1+Als2: did not cause any phytotoxic response
[2]; [12]
  Soybean response (percent phytotoxicity), Als2: 0%
[2]; [5]
  Soybean response (percent phytotoxicity), Als2: 0%
[2]; [6]
  Soybean response (percent phytotoxicity), Als2: 0%
[2]; [7]
  Soybean response (percent phytotoxicity), Als2: 0%
[2]; [8]
  Soybean response (percent phytotoxicity), Als2: 0%
[2]; [13]
  phytotoxic response (in words), Als2: did not cause any phytotoxic response
[3]; [12]
  Soybean response (percent phytotoxicity), Als1: 0%
[3]; [5]
  Soybean response (percent phytotoxicity), Als1: 0%
[3]; [6]
  Soybean response (percent phytotoxicity), Als1: 0%
[3]; [7]
  Soybean response (percent phytotoxicity), Als1: 0%
[3]; [8]
  Soybean response (percent phytotoxicity), Als1: 0%
[3]; [13]
  phytotoxic response (in words), Als1: did not cause any phytotoxic response
[4]; [12]
  Soybean response (percent phytotoxicity), Wild type: 0%
[4]; [5]
  Soybean response (percent phytotoxicity), Wild type: 5%
[4]; [6]
  Soybean response (percent phytotoxicity), Wild type: 20%
[4]; [7]
  Soybean response (percent phytotoxicity), Wild type: 35%
[4]; [8]
  Soybean response (percent phytotoxicity), Wild type: 45%
